Laboratory results as given in paper PMC11785709, “Angelica gigas Nakai (Korean Dang-gui) Root Alcoholic Extracts in Health Promotion and Disease Therapy – active Phytochemicals and In Vivo Molecular Targets” (Pharmaceutical Research, 2025).

Experiments:
Assay in all cases: Reaction Biology kinase activity inhibition
Type in all cases: biochemical
[1] = molecular target: T1, STK21/CIT (Homo sapiens, UniProt O14578); conditions: initial screening
T1 construct: purchased Reaction Biology
In short: (§1)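 Radiometric kinase activity assay using γ-^33P-ATP on a miniaturized platform, part of a panel of more than 600 protein and lipid kinases. Hits were confirmed by IC50 profiling at 5 test-compound concentrations with curve fitting.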

[2] = molecular target: T2, CDK3/cyclin E (Homo sapiens, UniProt Q00526); conditions: initial screening
T2 construct: purchased Reaction Biology
T2 sequence (Q00526 whole entry): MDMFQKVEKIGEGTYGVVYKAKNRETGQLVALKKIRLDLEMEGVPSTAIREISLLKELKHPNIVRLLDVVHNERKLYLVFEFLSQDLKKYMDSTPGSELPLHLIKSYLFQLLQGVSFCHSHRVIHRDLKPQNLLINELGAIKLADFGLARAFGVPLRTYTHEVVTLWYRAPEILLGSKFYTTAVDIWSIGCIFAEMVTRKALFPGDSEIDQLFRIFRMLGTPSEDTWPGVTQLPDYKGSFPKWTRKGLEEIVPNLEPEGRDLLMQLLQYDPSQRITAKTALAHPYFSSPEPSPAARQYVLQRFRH
T2 sequence (P24864 whole entry partner): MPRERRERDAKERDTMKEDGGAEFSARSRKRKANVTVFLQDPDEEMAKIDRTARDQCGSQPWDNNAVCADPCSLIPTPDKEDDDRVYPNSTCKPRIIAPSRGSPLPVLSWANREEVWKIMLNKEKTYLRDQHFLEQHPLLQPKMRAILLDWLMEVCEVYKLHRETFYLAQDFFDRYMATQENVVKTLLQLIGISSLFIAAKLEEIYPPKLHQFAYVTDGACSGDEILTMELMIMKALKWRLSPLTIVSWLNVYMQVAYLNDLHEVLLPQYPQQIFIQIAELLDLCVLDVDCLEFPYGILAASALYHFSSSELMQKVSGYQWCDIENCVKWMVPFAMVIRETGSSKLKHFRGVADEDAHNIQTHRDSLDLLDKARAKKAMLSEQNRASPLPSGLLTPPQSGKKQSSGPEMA
In short: as §1

[3] = molecular target: T3, MELK (Homo sapiens, UniProt Q14680); conditions: initial screening
T3 construct: purchased Reaction Biology
In short: as §1

[4] = molecular target: T4, FGR (Homo sapiens, UniProt P09769); conditions: initial screening
T4 construct: purchased Reaction Biology
T4 sequence (P09769 whole entry): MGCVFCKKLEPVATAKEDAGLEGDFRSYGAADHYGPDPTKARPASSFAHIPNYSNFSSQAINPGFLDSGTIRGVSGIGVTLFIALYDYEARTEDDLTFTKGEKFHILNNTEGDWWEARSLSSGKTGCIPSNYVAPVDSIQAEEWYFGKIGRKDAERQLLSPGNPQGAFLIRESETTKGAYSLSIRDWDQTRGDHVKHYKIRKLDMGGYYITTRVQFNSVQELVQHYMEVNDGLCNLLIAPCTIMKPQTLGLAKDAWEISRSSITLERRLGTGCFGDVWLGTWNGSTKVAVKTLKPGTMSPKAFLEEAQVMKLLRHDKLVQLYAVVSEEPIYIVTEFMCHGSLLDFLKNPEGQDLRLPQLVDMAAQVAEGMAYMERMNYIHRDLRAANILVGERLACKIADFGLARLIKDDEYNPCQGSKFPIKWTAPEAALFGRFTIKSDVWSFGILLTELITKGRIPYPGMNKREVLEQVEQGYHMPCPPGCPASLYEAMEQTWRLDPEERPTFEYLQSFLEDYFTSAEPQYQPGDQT
In short: as §1

[5] = molecular target: T5, CAMK1d (Homo sapiens, UniProt Q8IU85); conditions: initial screening
T5 construct: purchased Reaction Biology
T5 sequence (Q8IU85 whole entry): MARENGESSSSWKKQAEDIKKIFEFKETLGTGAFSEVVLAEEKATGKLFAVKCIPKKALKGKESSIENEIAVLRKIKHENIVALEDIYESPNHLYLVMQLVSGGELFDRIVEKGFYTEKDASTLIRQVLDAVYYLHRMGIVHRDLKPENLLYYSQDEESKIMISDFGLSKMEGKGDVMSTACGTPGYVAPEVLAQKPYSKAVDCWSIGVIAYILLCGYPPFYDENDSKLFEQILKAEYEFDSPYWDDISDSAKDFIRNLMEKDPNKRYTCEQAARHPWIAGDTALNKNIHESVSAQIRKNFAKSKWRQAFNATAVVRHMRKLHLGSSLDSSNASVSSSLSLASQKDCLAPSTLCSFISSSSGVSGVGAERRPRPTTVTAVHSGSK
In short: as §1

[6] = molecular target: T6, Aurora B (Homo sapiens, UniProt Q96GD4); conditions: initial screening
T6 construct: purchased Reaction Biology
T6 sequence (Q96GD4 whole entry): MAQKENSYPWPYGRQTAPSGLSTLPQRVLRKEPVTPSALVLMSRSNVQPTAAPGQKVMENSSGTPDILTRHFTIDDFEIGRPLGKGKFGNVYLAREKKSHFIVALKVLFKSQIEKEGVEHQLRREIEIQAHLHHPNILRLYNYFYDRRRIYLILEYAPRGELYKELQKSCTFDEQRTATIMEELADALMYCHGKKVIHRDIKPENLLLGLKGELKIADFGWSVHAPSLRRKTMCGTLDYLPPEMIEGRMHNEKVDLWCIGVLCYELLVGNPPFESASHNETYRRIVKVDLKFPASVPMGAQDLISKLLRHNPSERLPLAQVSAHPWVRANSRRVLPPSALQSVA
In short: as §1

[7] = molecular target: T7, PKCzeta (Homo sapiens, UniProt Q05513); conditions: initial screening
T7 construct: purchased Reaction Biology
In short: as §1

[8] = molecular target: T8, MKK7 (MAPK9) (Homo sapiens, UniProt O14733); conditions: initial screening
T8 construct: purchased Reaction Biology
T8 sequence (O14733 2-419 limits assumed): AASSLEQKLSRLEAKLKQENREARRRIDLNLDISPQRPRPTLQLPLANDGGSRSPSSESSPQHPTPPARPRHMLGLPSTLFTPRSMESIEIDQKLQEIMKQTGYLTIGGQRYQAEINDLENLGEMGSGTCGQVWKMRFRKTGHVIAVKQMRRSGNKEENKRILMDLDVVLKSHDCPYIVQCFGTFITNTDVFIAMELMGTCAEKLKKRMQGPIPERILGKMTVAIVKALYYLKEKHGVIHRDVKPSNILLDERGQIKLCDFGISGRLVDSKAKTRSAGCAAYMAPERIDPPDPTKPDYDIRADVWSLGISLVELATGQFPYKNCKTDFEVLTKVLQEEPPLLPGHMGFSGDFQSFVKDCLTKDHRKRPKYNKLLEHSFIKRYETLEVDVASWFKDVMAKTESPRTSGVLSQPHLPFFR
In short: as §1

[9] = molecular target: T9, LKB1 (Homo sapiens, UniProt Q15831); conditions: activity screening, DOH at 50 μM
T9 construct: purchased Reaction Biology (Malvern, PA)
In short: as §1

[10] = molecular target: T10, STK32B/YANK2 (Homo sapiens, UniProt Q9NY57); conditions: initial screening
T10 construct: purchased Reaction Biology
T10 sequence (Q9NY57 whole entry): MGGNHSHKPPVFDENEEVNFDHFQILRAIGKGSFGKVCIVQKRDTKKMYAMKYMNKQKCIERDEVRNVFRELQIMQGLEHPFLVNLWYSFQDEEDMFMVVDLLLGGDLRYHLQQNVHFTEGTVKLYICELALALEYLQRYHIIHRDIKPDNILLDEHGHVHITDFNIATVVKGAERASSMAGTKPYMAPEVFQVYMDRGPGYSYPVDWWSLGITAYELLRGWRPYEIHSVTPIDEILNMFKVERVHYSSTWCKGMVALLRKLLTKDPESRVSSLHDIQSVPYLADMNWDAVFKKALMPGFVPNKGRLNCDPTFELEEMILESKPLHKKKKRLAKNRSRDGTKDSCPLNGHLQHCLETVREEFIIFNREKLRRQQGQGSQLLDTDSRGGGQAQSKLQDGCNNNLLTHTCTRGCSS
In short: as §1

[11] = molecular target: T11, CDK7/cyclin H (Homo sapiens, UniProt P50613); conditions: initial screening
T11 construct: purchased Reaction Biology
In short: as §1

[12] = molecular target: T12, BRSK1 (Homo sapiens, UniProt Q8TDC3); conditions: initial screening
T12 construct: purchased Reaction Biology
T12 sequence (Q8TDC3 1-778): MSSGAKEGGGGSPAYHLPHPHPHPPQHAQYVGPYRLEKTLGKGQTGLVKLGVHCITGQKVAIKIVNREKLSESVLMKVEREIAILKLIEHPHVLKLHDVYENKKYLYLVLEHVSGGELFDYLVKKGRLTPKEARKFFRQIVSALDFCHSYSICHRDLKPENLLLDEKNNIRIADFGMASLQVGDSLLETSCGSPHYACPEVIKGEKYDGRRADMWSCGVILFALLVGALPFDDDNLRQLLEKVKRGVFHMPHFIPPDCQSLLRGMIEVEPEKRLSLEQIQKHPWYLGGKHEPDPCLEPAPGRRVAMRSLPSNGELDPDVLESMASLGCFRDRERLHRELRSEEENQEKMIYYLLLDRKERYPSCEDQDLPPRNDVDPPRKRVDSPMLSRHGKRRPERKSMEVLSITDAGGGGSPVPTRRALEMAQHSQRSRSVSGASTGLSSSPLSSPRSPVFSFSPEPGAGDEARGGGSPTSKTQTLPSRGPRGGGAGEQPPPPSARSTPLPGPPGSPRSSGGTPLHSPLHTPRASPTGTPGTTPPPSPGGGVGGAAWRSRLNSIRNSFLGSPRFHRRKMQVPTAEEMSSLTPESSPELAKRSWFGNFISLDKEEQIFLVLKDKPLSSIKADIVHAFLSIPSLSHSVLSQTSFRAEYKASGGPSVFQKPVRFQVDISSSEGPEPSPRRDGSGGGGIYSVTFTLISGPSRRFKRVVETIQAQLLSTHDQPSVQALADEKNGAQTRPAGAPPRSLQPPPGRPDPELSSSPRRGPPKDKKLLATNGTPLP
In short: as §1

[13] = molecular target: T13, TYK2 (Homo sapiens, UniProt P29597); conditions: initial screening
T13 construct: purchased Reaction Biology
In short: as §1

[14] = molecular target: T14, CK2a (Homo sapiens, UniProt P68400); conditions: initial screening
T14 construct: purchased Reaction Biology
T14 sequence (P68400 whole entry): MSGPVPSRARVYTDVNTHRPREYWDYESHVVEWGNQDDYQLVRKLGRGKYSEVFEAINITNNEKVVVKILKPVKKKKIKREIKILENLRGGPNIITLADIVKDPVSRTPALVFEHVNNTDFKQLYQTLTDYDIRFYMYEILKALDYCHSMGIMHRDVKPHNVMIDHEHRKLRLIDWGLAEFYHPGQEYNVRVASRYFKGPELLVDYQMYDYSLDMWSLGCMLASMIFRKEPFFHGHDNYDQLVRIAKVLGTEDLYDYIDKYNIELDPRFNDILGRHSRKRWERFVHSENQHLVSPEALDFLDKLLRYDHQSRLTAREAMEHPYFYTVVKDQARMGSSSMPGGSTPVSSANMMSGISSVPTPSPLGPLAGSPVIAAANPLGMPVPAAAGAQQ
In short: as §1

[15] = DOH (50 µM), Data 1 and Data 2, read-out: % Enzyme Activity (relative to DMSO controls)

T1 sequence (O14578 whole entry): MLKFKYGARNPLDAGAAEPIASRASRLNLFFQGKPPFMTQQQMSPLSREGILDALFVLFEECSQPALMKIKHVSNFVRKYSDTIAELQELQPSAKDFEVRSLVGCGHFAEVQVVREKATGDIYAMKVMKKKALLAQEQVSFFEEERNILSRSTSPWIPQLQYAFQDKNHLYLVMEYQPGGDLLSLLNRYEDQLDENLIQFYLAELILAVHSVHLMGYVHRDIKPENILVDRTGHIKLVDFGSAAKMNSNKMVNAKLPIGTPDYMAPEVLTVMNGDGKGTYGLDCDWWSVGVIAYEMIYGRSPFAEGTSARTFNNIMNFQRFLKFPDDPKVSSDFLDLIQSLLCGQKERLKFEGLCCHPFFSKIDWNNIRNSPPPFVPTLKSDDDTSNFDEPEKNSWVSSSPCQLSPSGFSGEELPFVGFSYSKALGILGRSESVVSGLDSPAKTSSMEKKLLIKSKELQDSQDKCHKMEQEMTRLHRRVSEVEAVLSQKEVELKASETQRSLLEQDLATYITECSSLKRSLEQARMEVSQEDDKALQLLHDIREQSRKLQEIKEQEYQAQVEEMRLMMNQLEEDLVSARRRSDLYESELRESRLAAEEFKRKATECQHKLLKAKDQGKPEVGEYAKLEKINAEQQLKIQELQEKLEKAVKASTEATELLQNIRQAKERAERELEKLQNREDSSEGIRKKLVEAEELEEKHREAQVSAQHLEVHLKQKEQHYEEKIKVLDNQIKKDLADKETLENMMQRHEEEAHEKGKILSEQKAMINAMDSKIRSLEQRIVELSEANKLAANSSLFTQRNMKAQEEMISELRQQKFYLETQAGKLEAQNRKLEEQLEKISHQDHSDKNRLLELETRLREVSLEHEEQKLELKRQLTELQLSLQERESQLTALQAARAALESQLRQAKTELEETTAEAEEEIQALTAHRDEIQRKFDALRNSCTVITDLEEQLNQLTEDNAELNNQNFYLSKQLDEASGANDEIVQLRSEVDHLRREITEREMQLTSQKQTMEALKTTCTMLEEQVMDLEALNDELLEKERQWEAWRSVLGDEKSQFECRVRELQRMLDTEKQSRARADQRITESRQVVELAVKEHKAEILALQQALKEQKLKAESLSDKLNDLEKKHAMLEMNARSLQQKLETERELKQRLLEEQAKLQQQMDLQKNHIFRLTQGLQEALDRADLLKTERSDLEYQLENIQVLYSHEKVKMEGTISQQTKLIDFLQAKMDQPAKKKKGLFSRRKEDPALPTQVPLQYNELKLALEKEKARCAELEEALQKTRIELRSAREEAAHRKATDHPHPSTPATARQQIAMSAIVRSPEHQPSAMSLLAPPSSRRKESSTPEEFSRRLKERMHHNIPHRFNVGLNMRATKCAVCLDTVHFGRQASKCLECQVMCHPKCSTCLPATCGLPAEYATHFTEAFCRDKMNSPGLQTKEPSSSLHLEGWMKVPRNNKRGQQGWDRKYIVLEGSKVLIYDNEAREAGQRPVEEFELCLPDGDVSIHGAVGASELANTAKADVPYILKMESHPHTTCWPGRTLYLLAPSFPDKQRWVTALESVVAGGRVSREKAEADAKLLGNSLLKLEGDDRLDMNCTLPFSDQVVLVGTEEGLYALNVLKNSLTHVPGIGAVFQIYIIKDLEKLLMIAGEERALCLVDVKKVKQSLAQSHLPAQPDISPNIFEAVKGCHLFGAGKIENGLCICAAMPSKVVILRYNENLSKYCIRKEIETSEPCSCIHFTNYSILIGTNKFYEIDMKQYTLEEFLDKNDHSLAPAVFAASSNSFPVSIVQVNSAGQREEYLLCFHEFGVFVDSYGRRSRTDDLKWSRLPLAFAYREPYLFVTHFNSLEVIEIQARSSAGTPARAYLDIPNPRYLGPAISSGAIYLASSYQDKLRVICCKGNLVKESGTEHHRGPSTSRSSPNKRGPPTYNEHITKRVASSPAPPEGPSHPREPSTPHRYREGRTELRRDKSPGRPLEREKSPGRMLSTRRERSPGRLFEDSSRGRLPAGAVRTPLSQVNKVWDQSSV

CC1(C)Oc2cc3oc(=O)ccc3cc2C[C@@H]1O [DOH, decursinol]
inhibition at 50 µM ([1]; DOH 50 µM): 28.3%
% Enzyme Activity (relative to DMSO controls) ([1]; DOH (50 µM), Data 1 and Data 2): 71.1%
remaining activity at 50 µM [1, 15]: 72.2%
inhibition at 50 µM ([2]; DOH 50 µM): 30.3%
% Enzyme Activity (relative to DMSO controls) ([2]; DOH (50 µM), Data 1 and Data 2): 69.4%
remaining activity at 50 µM [2, 15]: 70%
inhibition at 50 µM ([3]; DOH 50 µM): 35.2%
% Enzyme Activity (relative to DMSO controls) ([3]; DOH (50 µM), Data 1 and Data 2): 64.6%
remaining activity at 50 µM [3, 15]: 65%
inhibition at 50 µM ([4]; DOH 50 µM): 34.8%
% Enzyme Activity (relative to DMSO controls) ([4]; DOH (50 µM), Data 1 and Data 2): 64.8%
remaining activity at 50 µM [4, 15]: 65.6%
inhibition at 50 µM ([5]; DOH 50 µM): 27.1%
% Enzyme Activity (relative to DMSO controls) ([5]; DOH (50 µM), Data 1 and Data 2): 70.6%
remaining activity at 50 µM [5, 15]: 75.3%
inhibition at 50 µM ([6]; DOH 50 µM): 36.2%
% Enzyme Activity (relative to DMSO controls) ([6]; DOH (50 µM), Data 1 and Data 2): 63.7%
remaining activity at 50 µM [6, 15]: 64%
inhibition at 50 µM ([7]; DOH 50 µM): 27.1%
remaining activity at 50 µM [7, 15]: 72.9%
inhibition at 50 µM ([8]; DOH 50 µM): 36.5%
% Enzyme Activity (relative to DMSO controls) ([8]; DOH (50 µM), Data 1 and Data 2): 61.2%
remaining activity at 50 µM [8, 15]: 65.9%
inhibition of kinase activity [9]: no inhibition
inhibition at 50 µM ([10]; DOH 50 µM): 31.1%
% Enzyme Activity (relative to DMSO controls) ([10]; DOH (50 µM), Data 1 and Data 2): 67.4%
remaining activity at 50 µM [10, 15]: 70.3%
inhibition at 50 µM ([11]; DOH 50 µM): 25.7%
% Enzyme Activity (relative to DMSO controls) ([11]; DOH (50 µM), Data 1 and Data 2): 73.9%
remaining activity at 50 µM [11, 15]: 74.8%
inhibition at 50 µM ([12]; DOH 50 µM): 29.7%
% Enzyme Activity (relative to DMSO controls) ([12]; DOH (50 µM), Data 1 and Data 2): 69.5%
remaining activity at 50 µM [12, 15]: 71.1%
inhibition at 50 µM ([13]; DOH 50 µM): 32.4%
% Enzyme Activity (relative to DMSO controls) ([13]; DOH (50 µM), Data 1 and Data 2): 62.8%
remaining activity at 50 µM [13, 15]: 72.3%
inhibition at 50 µM ([14]; DOH 50 µM): 33%
% Enzyme Activity (relative to DMSO controls) ([14]; DOH (50 µM), Data 1 and Data 2): 66.2%
remaining activity at 50 µM [14, 15]: 67.8%
